Source: US11479556B1, “Bifunctional compounds for degrading BTK via ubiquitin proteosome pathway” (NURIX THERAPEUTICS, INC., priority 2018, dated 2022)

Tests used:
BTK = target: T1, BTK (Homo sapiens, UniProt Q06187); assay: Cellular BTK HTRF assay (BTK degradation) in TMD8 cells; type: cell-based; settings: four hours incubation, Total-BTK HTRF relative to DMSO-treated cells
T1 construct: endogenous in cells; host or cells: TMD8 cells
How it was run: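 TMD8 cells were treated with compounds (final DMSO <0.200) for four hours at 37° C, 5% CO2, then lysed for 30 minutes. Total BTK was measured by two-antibody HTRF, taking the 665/620 nm ratio with background subtracted and expressed relative to DMSO-treated cells. DC50 came from four-parameter nonlinear regression.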

Aiolos = target: T2, Aiolos (Homo sapiens, UniProt Q96SW2+Q9UKT9); assay: Aiolos degradation flow cytometry assay in human PBMCs (T cells); type: cell-based; settings: 24 hours, T cells (CD3+CD20-), read-out: Aiolos T Cell DC50
T2 construct: Frozen human peripheral blood mononuclear cells (PBMCs) were thawed and treated with DMSO or compound for 24 hours; endogenous in cells; host or cells: human PBMCs (T cells gated CD3+CD20-)
Procedure: Example 67: Aiolos Degradation Assay
Frozen human peripheral blood mononuclear cells (PBMCs) were thawed and treated with DMSO or compound for 24 hours and then fixed and permeabilized using a Foxp3/Transcription Factor Fixation/Permeabilization Kit (eBioscience, 00-5523). Cells were stained with fluorophore-conjugated antibodies against CD20 (Biolegend 302330), CD3 (BD Pharmingen 552127), and Aiolos (Biolegend 371106). An additional set of DMSO-treated PBMCs was stained for CD20, CD3, and an AlexaFluor 647-conjugated mouse IgG1 isotype control antibody (Biolegend 400136). Stained cells were analyzed using an Attune NxT Acoustic Focusing Flow Cytometer (Thermo-Fisher A29004), and data was analyzed using FlowJo (v10.5.3) and GraphPad Prism (v7.00) software. Single lymphocytes were gated for B cells (CD20+CD3−) and T cells (CD3+CD20−), and the geometric mean fluorescence intensity (MFI) of Aiolos was calculated for each population. The MFI of the isotype control was calculated for each population and used to quantify background staining. Percent Aiolos degradation was calculated for each compound-treated sample using the following equation: […]
Four-parameter non-linear regressions were performed in GraphPad Prism 7.02 to obtain DC50 values. Aiolos T Cell DC50 values are provided in Table 4, wherein A<10.0 nM, 10.0 nM≤B≤1000 nM, and 1000 nM<C.

T1 sequence (Q06187 whole entry): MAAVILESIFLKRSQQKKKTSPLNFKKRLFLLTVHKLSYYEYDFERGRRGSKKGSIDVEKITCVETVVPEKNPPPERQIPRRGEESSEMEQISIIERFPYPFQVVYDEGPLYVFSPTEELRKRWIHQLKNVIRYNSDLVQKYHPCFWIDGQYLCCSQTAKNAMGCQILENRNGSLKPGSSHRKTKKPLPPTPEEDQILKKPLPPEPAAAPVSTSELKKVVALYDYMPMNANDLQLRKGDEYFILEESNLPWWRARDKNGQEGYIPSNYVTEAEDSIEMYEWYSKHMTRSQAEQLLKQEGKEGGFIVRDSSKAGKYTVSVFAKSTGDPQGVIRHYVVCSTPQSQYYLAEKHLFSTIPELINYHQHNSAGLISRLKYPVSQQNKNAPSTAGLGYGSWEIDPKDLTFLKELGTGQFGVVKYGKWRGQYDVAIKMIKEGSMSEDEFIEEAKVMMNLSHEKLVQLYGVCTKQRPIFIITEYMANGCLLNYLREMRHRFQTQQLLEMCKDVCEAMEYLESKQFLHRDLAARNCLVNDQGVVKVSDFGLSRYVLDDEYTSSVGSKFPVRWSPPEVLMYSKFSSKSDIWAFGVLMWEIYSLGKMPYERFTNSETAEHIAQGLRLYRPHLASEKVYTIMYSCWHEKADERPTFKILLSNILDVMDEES
T2 sequence (Q9UKT9 whole entry): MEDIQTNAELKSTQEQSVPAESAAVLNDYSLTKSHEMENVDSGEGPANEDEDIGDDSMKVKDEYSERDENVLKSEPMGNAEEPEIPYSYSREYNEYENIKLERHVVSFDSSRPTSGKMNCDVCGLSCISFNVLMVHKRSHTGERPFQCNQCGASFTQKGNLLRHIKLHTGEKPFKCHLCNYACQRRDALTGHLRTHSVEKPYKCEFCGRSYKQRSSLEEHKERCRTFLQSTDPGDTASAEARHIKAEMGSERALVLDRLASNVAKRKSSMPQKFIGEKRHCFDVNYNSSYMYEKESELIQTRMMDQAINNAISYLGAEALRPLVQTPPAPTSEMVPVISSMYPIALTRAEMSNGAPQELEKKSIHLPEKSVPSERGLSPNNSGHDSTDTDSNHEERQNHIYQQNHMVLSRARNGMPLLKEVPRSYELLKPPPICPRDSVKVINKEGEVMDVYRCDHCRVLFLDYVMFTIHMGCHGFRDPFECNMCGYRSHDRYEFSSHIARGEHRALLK
T2 sequence (Q96SW2 whole entry): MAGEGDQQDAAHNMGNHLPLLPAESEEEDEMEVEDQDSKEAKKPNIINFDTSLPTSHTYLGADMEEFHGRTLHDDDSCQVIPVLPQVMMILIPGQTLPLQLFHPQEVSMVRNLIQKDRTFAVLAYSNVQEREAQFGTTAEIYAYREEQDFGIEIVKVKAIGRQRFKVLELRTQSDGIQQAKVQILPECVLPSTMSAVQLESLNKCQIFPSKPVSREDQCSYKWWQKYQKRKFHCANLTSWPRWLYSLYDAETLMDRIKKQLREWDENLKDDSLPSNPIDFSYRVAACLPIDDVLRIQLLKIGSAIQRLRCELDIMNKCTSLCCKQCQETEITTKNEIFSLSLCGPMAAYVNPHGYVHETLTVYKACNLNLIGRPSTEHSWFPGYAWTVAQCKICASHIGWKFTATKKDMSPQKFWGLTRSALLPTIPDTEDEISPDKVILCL
T2 sequence (Q16531 whole entry partner): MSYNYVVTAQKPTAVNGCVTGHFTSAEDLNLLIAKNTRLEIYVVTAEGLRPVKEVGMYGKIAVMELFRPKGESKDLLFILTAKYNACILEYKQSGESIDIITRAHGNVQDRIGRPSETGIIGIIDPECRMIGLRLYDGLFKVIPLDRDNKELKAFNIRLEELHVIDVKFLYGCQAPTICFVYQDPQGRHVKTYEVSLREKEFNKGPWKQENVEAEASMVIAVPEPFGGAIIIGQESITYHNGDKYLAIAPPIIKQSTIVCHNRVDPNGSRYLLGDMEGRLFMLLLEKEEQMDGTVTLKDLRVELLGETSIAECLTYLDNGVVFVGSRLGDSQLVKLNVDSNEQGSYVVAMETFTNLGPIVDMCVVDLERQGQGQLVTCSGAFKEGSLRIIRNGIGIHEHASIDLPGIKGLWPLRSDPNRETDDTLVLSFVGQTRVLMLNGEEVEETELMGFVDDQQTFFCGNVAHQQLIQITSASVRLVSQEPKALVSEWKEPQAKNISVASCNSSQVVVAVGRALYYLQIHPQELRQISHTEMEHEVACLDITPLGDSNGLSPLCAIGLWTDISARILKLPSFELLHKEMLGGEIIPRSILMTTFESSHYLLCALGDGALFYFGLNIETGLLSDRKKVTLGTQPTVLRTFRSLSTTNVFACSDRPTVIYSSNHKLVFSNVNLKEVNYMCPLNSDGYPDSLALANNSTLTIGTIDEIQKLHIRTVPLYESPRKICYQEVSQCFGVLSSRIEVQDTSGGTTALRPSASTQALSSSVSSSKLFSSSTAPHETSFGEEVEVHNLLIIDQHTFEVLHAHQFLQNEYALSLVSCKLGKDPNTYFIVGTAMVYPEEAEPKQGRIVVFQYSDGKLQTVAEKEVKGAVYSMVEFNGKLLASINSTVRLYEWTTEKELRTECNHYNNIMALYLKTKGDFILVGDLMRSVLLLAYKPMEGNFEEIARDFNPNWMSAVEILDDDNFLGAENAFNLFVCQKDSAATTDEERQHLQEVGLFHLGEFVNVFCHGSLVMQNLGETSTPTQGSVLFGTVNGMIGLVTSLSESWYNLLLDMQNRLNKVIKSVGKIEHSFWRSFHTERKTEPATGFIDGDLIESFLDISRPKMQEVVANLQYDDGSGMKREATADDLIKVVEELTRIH

SMILES	DC50 (BTK) [nM]	DC50 (Aiolos) [nM]
NC(=O)c1ncc(N2CCCCC2)nc1Nc1ccc(N2CCC3(CCN(Cc4ccc5c(c4)C(=O)N(C4CCC(=O)NC4=O)C5=O)CC3)CC2)cc1 (stereo not drawn) [Compound 123]	5 to 15	> 1000
CN1CCN([C@@H]2CCCN(c3cnc(C(N)=O)c(Nc4ccc(N5CCN(CCCCc6cccc7c6CN(C6CCC(=O)NC6=O)C7=O)CC5)cc4)n3)C2)C1=O (stereo partly drawn) [Compound 17]	< 5	10 to 1000
CN1CCN([C@@H]2CCCN(c3cnc(C(N)=O)c(Nc4ccc5c(c4)CCN(CC4CCN(c6ccc7c(c6)C(=O)N(C6CCC(=O)NC6=O)C7=O)CC4)C5)n3)C2)C1=O (stereo partly drawn) [Compound 31]	< 5	10 to 1000
CN1CCN([C@@H]2CCCN(c3cnc(C(N)=O)c(Nc4ccc(C5CCN(CCCNc6cccc7c6C(=O)N(C6CCC(=O)NC6=O)C7=O)CC5)cc4)n3)C2)C1=O (stereo partly drawn) [Compound 155]	< 5	10 to 1000
CN1CCN([C@@H]2CCCN(c3cnc(C(N)=O)c(Nc4ccc(C5(C)CCN(C6CN(Cc7ccc8c(c7)C(=O)N(C7CCC(=O)NC7=O)C8=O)C6)CC5)cc4)n3)C2)C1=O (stereo partly drawn) [Compound 75]	< 5	> 1000
CN1CCN([C@@H]2CCCN(c3cnc(C(N)=O)c(Nc4ccc5c(c4)CCN(C4CN(c6ccc7c(c6)C(=O)N(C6CCC(=O)NC6=O)C7=O)C4)C5)n3)C2)C1=O (stereo partly drawn) [Compound 30]	5 to 15	< 10
CN1CCN([C@@H]2CCCN(c3cnc(C(N)=O)c(Nc4ccc(C5CCN(CC6CCN(c7ncc(C(=O)NC8CCC(=O)NC8=O)o7)CC6)CC5)cc4)n3)C2)C1=O (stereo partly drawn) [Compound 192]	< 5	–
CN1CCN([C@H]2CCCN(c3cnc(C(N)=O)c(Nc4ccc(N5CCC6(CC5)CN(c5cccc7c5C(=O)N(C5CCC(=O)NC5=O)C7=O)C6)cc4)n3)C2)C1=O (stereo partly drawn) [Compound 97]	> 15	–
CN1CCN([C@@H]2CCCN(c3cnc(C(N)=O)c(Nc4ccc(N5CCN(CC6CCN(c7ccc8c(c7)C(=O)N(C7CCC(=O)NC7=O)C8=O)CC6)CC5)cc4)n3)C2)C1=O (stereo partly drawn) [Compound 49]	< 5	–
NC(=O)c1ncc(N2CCCCC2)nc1Nc1ccc(C2CCN(CC3CCN(c4ccc(C(=O)NC5CCC(=O)NC5=O)nc4)CC3)CC2)cc1 (stereo not drawn) [Compound 182]	< 5	–
Cn1cc(Nc2nc(N3CCC[C@@H](N4CCC5(CN(CC6CCN(c7ccc8c(c7)C(=O)N(C7CCC(=O)NC7=O)C8=O)CC6)C5)C4=O)C3)cnc2C(N)=O)cn1 (stereo partly drawn) [Compound 137]	< 5	–
CN1CCN([C@@H]2CCCN(c3cnc(C(N)=O)c(Nc4ccc(N5CCN(C(=O)CN6CCN(CCc7cccc8c7CN(C7CCC(=O)NC7=O)C8=O)CC6)CC5)cc4)n3)C2)C1=O (stereo partly drawn) [Compound 12]	5 to 15	–
CN1CCN([C@@H]2CCCN(c3cnc(C(N)=O)c(Nc4ccc(C5(C)CCN(C(=O)CCCc6nnc(Nc7cccc8c7CN(C7CCC(=O)NC7=O)C8=O)o6)CC5)cc4)n3)C2)C1=O (stereo partly drawn) [Compound 7]	> 15	–
CN1CCN([C@@H]2CCCN(c3cnc(C(N)=O)c(Nc4ccc(N5CC6CN(CC7CCN(c8ccc9c(c8)C(=O)N(N8CCC(=O)NC8=O)C9=O)CC7)CC6C5)cc4)n3)C2)C1=O (stereo partly drawn) [Compound 114]	< 5	–
NC(=O)c1ncc(N2CCCC3(COC3)C2)nc1Nc1ccc(C2CCN(CC3CCN(c4ccc5c(=O)n(C6CCC(=O)NC6=O)ccc5c4)CC3)CC2)cc1 (stereo not drawn) [Compound 177]	< 5	–
NC(=O)c1ncc(N2CCC[C@@H](CO)C2)nc1Nc1ccc(C2CCN(CC3CCN(c4ccc(C(=O)NC5CCC(=O)NC5=O)nc4)CC3)CC2)cc1 (stereo partly drawn) [Compound 173]	< 5	–
CN1CCN([C@@H]2CCCN(c3cnc(C(N)=O)c(Nc4ccc(C5CCN(C[C@@H]6[C@H]7CN(c8ccc9c(c8)C(=O)N(C8CCC(=O)NC8=O)C9=O)C[C@@H]67)CC5)cc4)n3)C2)C1=O (stereo partly drawn) [Compound 39]	< 5	–
Cc1ncsc1-c1ccc([C@H](C)NC(=O)[C@@H]2C[C@@H](O)CN2C(=O)[C@@H](NC(=O)CCCCCC(=O)N2CCC(c3ccc(Nc4nc(N5CCC[C@@H](N6CCN(C)C6=O)C5)cnc4C(N)=O)cc3)CC2)C(C)(C)C)cc1 [Compound 189]	> 15	–
